In the NIST ThermoML archive (doi:10.1016/j.fluid.2018.04.007):

Key:
[1] = refractive index (Na D-line) (dimensionless); xn = mol fraction of the nth substance listed; details: 101 kPa, Liquid, Standard Abbe refractometry
[2] = relative permittivity at various frequencies (dimensionless); xn = mol fraction of the nth substance listed; details: 101 kPa, Liquid, Frequency=1 MHz, Parallel plate capacitor

CCCCCCN [1-hexanamine] + CCCCCCCO
Details	refractive index, 293.15 K	refractive index, 298.15 K	refractive index, 303.15 K	relative permittivity, 293.15 K	relative permittivity, 298.15 K	relative permittivity, 303.15 K
[1], x2 = 0	1.41807	1.41563	1.41321	–	–	–
[1], x2 = 0.056	1.41916	1.41674	1.41434	–	–	–
[1], x2 = 0.1018	1.41999	1.41761	1.41523	–	–	–
[1], x2 = 0.1463	1.42077	1.4184	1.41604	–	–	–
[1], x2 = 0.2047	1.42171	1.41937	1.41703	–	–	–
[1], x2 = 0.3044	1.4231	1.4208	1.41853	–	–	–
[1], x2 = 0.4059	1.42423	1.42197	1.41974	–	–	–
[1], x2 = 0.5044	1.42503	1.4228	1.42062	–	–	–
[1], x2 = 0.602	1.4255	1.42331	1.42116	–	–	–
[1], x2 = 0.7029	1.42563	1.42351	1.42142	–	–	–
[1], x2 = 0.7979	1.42545	1.42339	1.42136	–	–	–
[1], x2 = 0.8534	1.42521	1.4232	1.4212	–	–	–
[1], x2 = 0.8986	1.42496	1.42299	1.42103	–	–	–
[1], x2 = 0.9472	1.42464	1.42271	1.42079	–	–	–
[2], x2 = 0	–	–	–	3.963	3.903	3.848
[2], x2 = 0.0503	–	–	–	4.202	4.133	4.07
[2], x2 = 0.095	–	–	–	4.414	4.339	4.271
[2], x2 = 0.1606	–	–	–	4.731	4.644	4.567
[2], x2 = 0.2073	–	–	–	4.97	4.882	4.796
[2], x2 = 0.3067	–	–	–	5.497	5.392	5.291
[2], x2 = 0.4038	–	–	–	6.064	5.934	5.811
[2], x2 = 0.4991	–	–	–	6.671	6.508	6.358
[2], x2 = 0.6036	–	–	–	7.425	7.224	7.035
[2], x2 = 0.7001	–	–	–	8.239	7.981	7.746
[2], x2 = 0.8007	–	–	–	9.272	8.951	8.651
[2], x2 = 0.8524	–	–	–	9.877	9.521	9.177
[2], x2 = 0.8904	–	–	–	10.381	9.983	9.607
[2], x2 = 0.9402	–	–	–	11.091	10.642	10.222

CCCCCCN [1-hexanamine] + CCCCCO
Details	refractive index, 293.15 K	refractive index, 298.15 K	refractive index, 303.15 K	relative permittivity, 293.15 K	relative permittivity, 298.15 K	relative permittivity, 303.15 K
[1], x2 = 0	1.41813	1.41563	1.41324	–	–	–
[1], x2 = 0.0472	1.41838	1.41592	1.4136	–	–	–
[1], x2 = 0.1005	1.41862	1.41622	1.41392	–	–	–
[1], x2 = 0.1648	1.41884	1.41649	1.41424	–	–	–
[1], x2 = 0.2022	1.41896	1.4166	1.41438	–	–	–
[1], x2 = 0.3102	1.41908	1.41679	1.41458	–	–	–
[1], x2 = 0.3982	1.41895	1.41671	1.41451	–	–	–
[1], x2 = 0.5002	1.41846	1.41623	1.41407	–	–	–
[1], x2 = 0.6005	1.41756	1.41543	1.41329	–	–	–
[1], x2 = 0.7122	1.41609	1.41403	1.41193	–	–	–
[1], x2 = 0.7963	1.41463	1.41259	1.41054	–	–	–
[1], x2 = 0.8457	1.41364	1.41164	1.40958	–	–	–
[1], x2 = 0.8982	1.41246	1.41048	1.40844	–	–	–
[1], x2 = 0.9362	1.41153	1.40957	1.40754	–	–	–
[2], x2 = 0	–	–	–	3.967	3.905	3.846
[2], x2 = 0.052	–	–	–	4.248	4.176	4.11
[2], x2 = 0.1079	–	–	–	4.563	4.485	4.408
[2], x2 = 0.1601	–	–	–	4.876	4.785	4.701
[2], x2 = 0.2014	–	–	–	5.146	5.047	4.957
[2], x2 = 0.31	–	–	–	5.924	5.796	5.675
[2], x2 = 0.3982	–	–	–	6.653	6.494	6.348
[2], x2 = 0.5031	–	–	–	7.689	7.486	7.298
[2], x2 = 0.6013	–	–	–	8.827	8.567	8.319
[2], x2 = 0.6916	–	–	–	10.025	9.702	9.397
[2], x2 = 0.7952	–	–	–	11.649	11.246	10.864
[2], x2 = 0.8396	–	–	–	12.419	11.973	11.555
[2], x2 = 0.9006	–	–	–	13.582	13.084	12.61
[2], x2 = 0.9431	–	–	–	14.457	13.913	13.397

CCCCCCN [1-hexanamine] + CCCO
Details	refractive index, 293.15 K	refractive index, 298.15 K	refractive index, 303.15 K	relative permittivity, 293.15 K	relative permittivity, 298.15 K	relative permittivity, 303.15 K
[1], x2 = 0	1.41808	1.41563	1.41321	–	–	–
[1], x2 = 0.052	1.41775	1.41529	1.41292	–	–	–
[1], x2 = 0.1015	1.41735	1.41492	1.41258	–	–	–
[1], x2 = 0.1475	1.41693	1.41452	1.41223	–	–	–
[1], x2 = 0.2108	1.41627	1.41393	1.4116	–	–	–
[1], x2 = 0.2983	1.41509	1.41276	1.41049	–	–	–
[1], x2 = 0.3967	1.41351	1.4112	1.40878	–	–	–
[1], x2 = 0.4998	1.41113	1.40876	1.40642	–	–	–
[1], x2 = 0.604	1.40784	1.40551	1.40323	–	–	–
[1], x2 = 0.6965	1.40408	1.40199	1.39964	–	–	–
[1], x2 = 0.8013	1.39877	1.39675	1.39454	–	–	–
[1], x2 = 0.8505	1.39588	1.39373	1.39168	–	–	–
[1], x2 = 0.8953	1.39295	1.39085	1.38884	–	–	–
[1], x2 = 0.9486	1.38914	1.38704	1.38505	–	–	–
[2], x2 = 0	–	–	–	3.964	3.904	3.846
[2], x2 = 0.0708	–	–	–	4.411	4.336	4.263
[2], x2 = 0.1073	–	–	–	4.663	4.578	4.499
[2], x2 = 0.147	–	–	–	4.953	4.857	4.77
[2], x2 = 0.1935	–	–	–	5.33	5.222	5.123
[2], x2 = 0.307	–	–	–	6.436	6.286	6.148
[2], x2 = 0.3941	–	–	–	7.471	7.279	7.102
[2], x2 = 0.5056	–	–	–	9.113	8.85	8.605
[2], x2 = 0.6097	–	–	–	10.99	10.649	10.324
[2], x2 = 0.6977	–	–	–	12.847	12.426	12.034
[2], x2 = 0.8044	–	–	–	15.469	14.948	14.463
[2], x2 = 0.8406	–	–	–	16.431	15.885	15.354
[2], x2 = 0.8989	–	–	–	18.08	17.478	16.902
[2], x2 = 0.9504	–	–	–	19.605	18.955	18.33

CCCCCCN [1-hexanamine] + CCCCO
Details	refractive index, 293.15 K	refractive index, 298.15 K	refractive index, 303.15 K	relative permittivity, 293.15 K	relative permittivity, 298.15 K	relative permittivity, 303.15 K
[1], x2 = 0	1.4181	1.41565	1.41322	–	–	–
[1], x2 = 0.0552	1.41812	1.41564	1.41324	–	–	–
[1], x2 = 0.0896	1.418	1.41556	1.41319	–	–	–
[1], x2 = 0.1588	1.41781	1.41542	1.41306	–	–	–
[1], x2 = 0.1967	1.41768	1.41529	1.41294	–	–	–
[1], x2 = 0.3035	1.41702	1.4147	1.4124	–	–	–
[1], x2 = 0.4077	1.41603	1.41381	1.41148	–	–	–
[1], x2 = 0.4984	1.41487	1.41267	1.4104	–	–	–
[1], x2 = 0.6004	1.41298	1.41079	1.40852	–	–	–
[1], x2 = 0.6977	1.41065	1.40845	1.40621	–	–	–
[1], x2 = 0.7982	1.40746	1.40534	1.40316	–	–	–
[1], x2 = 0.8451	1.40577	1.40368	1.40155	–	–	–
[1], x2 = 0.8996	1.40359	1.40158	1.39949	–	–	–
[1], x2 = 0.9461	1.40166	1.39965	1.39765	–	–	–
[2], x2 = 0	–	–	–	3.965	3.904	3.845
[2], x2 = 0.051	–	–	–	4.258	4.186	4.12
[2], x2 = 0.0969	–	–	–	4.538	4.46	4.385
[2], x2 = 0.1402	–	–	–	4.828	4.739	4.656
[2], x2 = 0.2052	–	–	–	5.294	5.19	5.094
[2], x2 = 0.3095	–	–	–	6.164	6.028	5.898
[2], x2 = 0.4059	–	–	–	7.139	6.965	6.797
[2], x2 = 0.5054	–	–	–	8.352	8.121	7.905
[2], x2 = 0.593	–	–	–	9.623	9.333	9.058
[2], x2 = 0.6983	–	–	–	11.376	11.005	10.656
[2], x2 = 0.8047	–	–	–	13.472	13.003	12.566
[2], x2 = 0.8525	–	–	–	14.558	14.054	13.565
[2], x2 = 0.9035	–	–	–	15.741	15.182	14.656
[2], x2 = 0.946	–	–	–	16.795	16.197	15.632

CCCCCCN [1-hexanamine] + CO
Details	refractive index, 293.15 K	refractive index, 298.15 K	refractive index, 303.15 K	relative permittivity, 293.15 K	relative permittivity, 298.15 K
[1], x2 = 0	1.41808	1.41563	1.41321	–	–
[1], x2 = 0.0534	1.41741	1.41499	1.41261	–	–
[1], x2 = 0.0942	1.41681	1.41442	1.41204	–	–
[1], x2 = 0.1871	1.41513	1.41282	1.4104	–	–
[1], x2 = 0.2977	1.4125	1.41017	1.40773	–	–
[1], x2 = 0.4039	1.40889	1.40657	1.40412	–	–
[1], x2 = 0.4917	1.4048	1.40243	1.4	–	–
[1], x2 = 0.5977	1.3979	1.3955	1.39316	–	–
[1], x2 = 0.6997	1.38836	1.38615	1.38372	–	–
[1], x2 = 0.7995	1.37505	1.37296	1.37067	–	–
[1], x2 = 0.8475	1.36685	1.36479	1.36257	–	–
[1], x2 = 0.8978	1.35657	1.3546	1.3524	–	–
[1], x2 = 0.9496	1.34385	1.34182	1.33968	–	–
[1], x2 = 0.9834	1.33399	1.33194	1.3298	–	–
[2], x2 = 0	–	–	–	3.964	3.904
[2], x2 = 0.0534	–	–	–	4.367	4.293
[2], x2 = 0.122	–	–	–	4.964	4.87
[2], x2 = 0.1906	–	–	–	5.681	5.564
[2], x2 = 0.3081	–	–	–	7.244	7.085
[2], x2 = 0.395	–	–	–	8.783	8.557
[2], x2 = 0.4982	–	–	–	11.109	10.806
[2], x2 = 0.6035	–	–	–	14.21	13.794
[2], x2 = 0.7016	–	–	–	17.646	17.127
[2], x2 = 0.8002	–	–	–	21.864	21.254
[2], x2 = 0.8485	–	–	–	24.251	23.597
[2], x2 = 0.8984	–	–	–	26.928	26.203
[2], x2 = 0.9496	–	–	–	30.037	29.216
[2], x2 = 0.9834	–	–	–	32.343	31.44
